Assay results published in ChEMBL document CHEMBL5335778, “Bench-to-bedside: Innovation of small molecule anti-SARS-CoV-2 drugs in China” (Eur J Med Chem, 2023).

These compounds were tested on SARS-CoV-2 (assay: Antiviral activity against SARS-CoV-2 Omicron BA1 variant infected human A549-ACE2 cells assessed as inhibition of viral replication). Conditions: Severe acute respiratory syndrome coronavirus 2, Omicron BA1, A549-ACE2.
Type: functional, organism-based

With `Br.[2H]c1cc([C@]2(C#N)O[C@H](COC(=O)C(C)C)[C@@H](OC(=O)C(C)C)[C@H]2OC(=O)C(C)C)n2ncnc(N)c12` [DEUREMIDEVIR HYDROBROMIDE] the EC50 was 0.3 µM.

The compounds below were run on SARS-CoV-2 (assay: Antiviral activity against SARS-CoV-2 Omicron BA1 variant infected in human A549-ACE2 cells assessed as reduction in viral load measured upto 4 days by viral plaque assay). Conditions: Severe acute respiratory syndrome coronavirus 2, A549-ACE2, 96 h.
Type: functional, organism-based

Work on `COc1ccc2cc1Oc1ccc(cc1)C[C@H]1c3c(cc4c(c3Oc3cc5c(cc3OC)CCN(C)[C@@H]5C2)OCO4)CCN1C` [CEPHARANTHINE] yielded an EC50 of 0.1 µM.

These compounds were tested on SARS-CoV-2 (assay: Antiviral activity against SARS-CoV-2 variant Omicron BA.2 infected in African green monkey Vero E6 cells assessed as reduction in virus-induced cytopathic effect). Conditions: Severe acute respiratory syndrome coronavirus 2, Omicron BA.2, Vero C1008.
Type: functional, organism-based

`CC(C)C[C@H](NC(=O)OCC1C[C@H]2CCC[C@@H](C1)C2)C(=O)N[C@H](C=O)C[C@@H]1CCNC1=O` (some centres undefined) and `C[C@H](OC(C)(C)C)[C@H](NC(=O)OCc1ccccc1)C(=O)N[C@@H](CC1CCCCC1)C(=O)N[C@H](C=O)C[C@@H]1CCNC1=O` are the same in EC50: 0.0217 µM for the first, 0.0217 µM for the second.

`CC(C)C[C@H](NC(=O)c1cc2c(F)cccc2[nH]1)C(=O)NN(C[C@@H]1CCNC1=O)C(=O)[C@@H](F)Cl` and `COc1cccc2[nH]c(C(=O)N[C@@H](CC(C)C)C(=O)N[C@@H](C[C@@H]3CCNC3=O)C(=O)CO)cc12` [PF-00835231] are within 1.5-fold of each other in EC50: 0.0171 µM for the first, 0.0217 µM for the second.

`N#Cc1ccccc1-c1cc(-c2cc(Cl)cc(OCC3CC3)c2)c(=O)n(-c2cccnc2)c1` and `O=C1N(c2cncc3ccccc23)CNC12CC(c1ccccc1Cl)C2` (centres undefined) are the same in EC50: 0.0171 µM for the first, 0.0171 µM for the second.

`CC(C)C[C@H](NC(=O)OCc1ccccc1)C(=O)N[C@@H](C[C@@H]1CCNC1=O)C(O)S(=O)(=O)O` (some centres undefined) and `CC(C)(C)OC(=O)Nc1cccn([C@@H](CC2CC2)C(=O)N[C@@H](C[C@@H]2CCNC2=O)C(=O)C(=O)NCc2ccccc2)c1=O` are within 1.5-fold of each other in EC50: 0.0217 µM for the first, 0.0171 µM for the second.

`CSc1ccc2c(c1)NC(=O)C(F)(F)C2=O` and `COc1cccc2[nH]c(C(=O)N[C@@H](CC(C)C)C(=O)N[C@@H](C[C@@H]3CCCNC3=O)C(=O)COC(=O)c3c(C(F)(F)F)cccc3C(F)(F)F)cc12` are within 1.5-fold of each other in EC50: 0.0171 µM for the first, 0.0217 µM for the second.

`C[C@H](NC(=O)[C@@H](c1cccnc1)N(C(=O)C(Cl)Cl)c1ccc(-c2ccccc2)cc1)c1ccccc1` and `C[C@H](NC(=O)[C@@H](c1cccnc1)N(C(=O)c1ccco1)c1ccc(-c2ccccc2)cc1)c1ccccc1` are the same in EC50: 0.0217 µM for the first, 0.0217 µM for the second.
